# Assay results taken from patent publication US20240368173A1, “TRICYCLIC GPR65 MODULATORS” (PATHIOS THERAPEUTICS LIMITED, priority 2021, published 2024).
# pIC50: −log10 of the molar value.
# Target: human recombinant GPR65 (Homo sapiens, UniProt Q8IYL9)
# Test: Human GPR65 cAMP HTRF antagonist assay
# Assay type: cell-based
# Conditions: not given
# From the text: In one preferred embodiment, the compound prevents the increase in cytoplasmic cAMP levels expected following GPR65 activation at acidic pH. This prevention of cAMP accumulation in turn prevents downstream signalling through ICER, as described above. The “Human GPR65 cyclic adenosine monophosphate (cAMP) Homogeneous Time Resolved Fluorescence (HTRF) antagonist assay”, or simply “cAMP assay”, as described in the accompanying examples, can be used to measure the potency of GPR65 modulators, which is expressed as the concentration of compound required to reduce the increase in cAMP concentration upon GPR65 activation by 50% (i.e. an IC50).
# Human GPR65 Cyclic Adenosine Monophosphate (cAMP) Homogeneous Time Resolved Fluorescence (HTRF) Antagonist Assay Procedure
# IC50 data was obtained by the following procedure:
# 1321N1 human astrocytoma cells stably expressing human recombinant GPR65 (1321N1-hrGPR65 cells, EuroscreenFast) were cultured according to the vendor's instructions.
# Compounds were tested for their ability to antagonise GPR65, through measuring the concentration of cytoplasmic cAMP following treatment of the cells at a pH of 7.2 to activate GPR65 signalling and addition of the compound to be tested. The extent to which the expected rise in cAMP concentration upon GPR65 activation was suppressed by the added compound is indicative of its potency. The assay was carried out according to EuroscreenFast assay Methodology as follows.
# On the day of the assay, test compounds were added to 384-well, low volume, white microtiter plates by acoustic dispensing. KRH buffer (5 mM KCl, 1.25 mM MgSO4, 124 mM NaCl, 25 mM HEPES, 13.3 mM Glucose, 1.25 mM KH2PO4 and 1.45 mM CaCl2) was adjusted to pH 6.5, pH 7.6 and pH 8.4 by adding NaOH. 1321N1-hGPR65 cells were rapidly thawed and diluted in KRH, pH 7.6 prior to centrifugation at 300×g for 5 min and resuspension in assay buffer (KRH, pH 7.6, supplemented with 1 mM 3-isobutyl-1-methylxanthine (IBMX) and 200 μM ethylenediaminetetraacetic acid (EDTA)). Cells were added to assay plates at a density of 2,000 cells per well in a volume of 5 μl. Assay plates were briefly centrifuged at 100×g and then incubated at room temperature for 30 min. Cells were stimulated by the addition of 5 μL KRH, pH 6.5, to achieve an assay pH of 7.2, while control wells received 5 μl KRH, pH 8.4 to achieve an assay pH of 7.9. Assay plates were briefly centrifuged at 100×g and then incubated at room temperature for 30 min.
# Accumulation of cAMP was detected by cAMP HTRF kit (Cisbio). d2-labeled cAMP and cryptate-labeled anti-cAMP antibody in Lysis and Detection Buffer (Cisbio) were added to assay plates, and the plates were incubated at room temperature for 1 h. HTRF measurements were performed using a Pherastar FSX instrument. Acceptor and donor emission signals were measured at 665 nm and 620 nm, respectively, and HTRF ratios were calculated as signal665 nm/signal620 nm×10^4. Data were normalised to high and low control values and fitted with 4-parameter logistic regression to determine hGPR65 IC50 values for the test compounds, which are shown in Table 1.
# human recombinant GPR65, sequence (Q8IYL9 whole entry): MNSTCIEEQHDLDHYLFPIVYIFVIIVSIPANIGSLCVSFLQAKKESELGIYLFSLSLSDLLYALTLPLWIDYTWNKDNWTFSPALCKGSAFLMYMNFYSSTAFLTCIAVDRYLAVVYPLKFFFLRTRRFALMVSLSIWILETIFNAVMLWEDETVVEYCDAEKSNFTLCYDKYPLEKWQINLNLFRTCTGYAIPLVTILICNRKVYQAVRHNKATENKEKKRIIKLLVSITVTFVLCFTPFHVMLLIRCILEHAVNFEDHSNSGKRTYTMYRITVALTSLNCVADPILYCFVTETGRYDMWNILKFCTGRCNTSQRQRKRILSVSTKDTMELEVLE
row,SMILES,pIC50
1,"O=C(Nc1cc(Cl)c(C2CC2)cc1F)N1[C@H]2CC[C@@H]1c1n[nH]c(=O)cc1C2 [Compound 42, (6S,9R)-N-(5-Chloro-4-cyclopropyl-2-fluorophenyl)-3-oxo-3,5,6,7,8,9-hexahydro-2H-6,9-epiminocyclohepta[c]pyridazine-10-carboxamide]",> 6.30
2,"O=C(Nc1cc(Cl)c(-c2ccc3nonc3c2)cc1F)N1[C@H]2CC[C@@H]1c1n[nH]c(=O)cc1C2 [Compound 108, (6S,9R)-N-(4-(Benzo[c][1,2,5]oxadiazol-5-yl)-5-chloro-2-fluorophenyl)-3-oxo-3,5,6,7,8,9-hexahydro-2H-6,9-epiminocyclohepta[c]pyridazine-10-carboxamide]",> 6.30
3,"O=C(Nc1cc(Cl)c(C(F)(F)F)cc1F)N1[C@@H]2CC[C@H]1c1ccnc(F)c1[C@H]2F [Compound 295, (5S,8R,9R)-N-(5-Chloro-2-fluoro-4-(trifluoromethyl)phenyl)-1,9-difluoro-6,7,8,9-tetrahydro-5H-5,8-epiminocyclohepta[c]pyridine-10-carboxamide]",> 6.30
4,"O=C(Nc1cc(-c2ccc3nonc3c2)c(C(F)(F)F)cc1F)N1[C@H]2CC[C@@H]1c1c[nH]c(=O)cc1C2 [Compound 259, (6S,9R)-N-(5-(Benzo[c][1,2,5]oxadiazol-5-yl)-2-fluoro-4-(trifluoromethyl)phenyl)-3-oxo-3,5,6,7,8,9-hexahydro-2H-6,9-epiminocyclohepta[c]pyridine-10-carboxamide]",> 6.30
5,"CO[C@H]1C[C@H](Oc2ccc(-c3cc(F)c(NC(=O)N4[C@H]5CC[C@@H]4c4n[nH]c(=O)cc4C5)cc3Cl)cn2)C1 [Compound 306, (6S,9R)-N-(5-Chloro-2-fluoro-4-(6-((1r,3R)-3-methoxycyclobutoxy)pyridin-3-yl)phenyl)-3-oxo-3,5,6,7,8,9-hexahydro-2H-6,9-epiminocyclohepta[c]pyridazine-10-carboxamide]",> 6.30
6,"O=C(Nc1cc(I)c(Cl)cc1F)N1[C@H]2CC[C@@H]1c1c[nH]c(=O)cc1C2 [Compound 80, (6S,9R)-N-(4-Chloro-2-fluoro-5-iodophenyl)-3-oxo-3,5,6,7,8,9-hexahydro-2H-6,9-epiminocyclohepta[c]pyridine-10-carboxamide]",5.30 to 6.30
7,"O=C(Nc1cc(Cl)c(-c2ccc(OCCC(F)(F)F)nc2)cc1F)N1[C@H]2CC[C@@H]1c1c[nH]c(=O)cc1C2 [Compound 332, (6S,9R)-N-(5-Chloro-2-fluoro-4-(6-(3,3,3-trifluoropropoxy)pyridin-3-yl)phenyl)-3-oxo-3,5,6,7,8,9-hexahydro-2H-6,9-epiminocyclohepta[c]pyridine-10-carboxamide]",> 6.30
8,"O=C(Nc1cc(Cl)c(-c2ccc3nsnc3c2)cc1F)N1[C@H]2CC[C@@H]1c1ccnc(F)c1C2 [Compound 177, (5R,8S)-N-(4-(benzo[c][1,2,5]thiadiazol-5-yl)-5-chloro-2-fluorophenyl)-1-fluoro-6,7,8,9-tetrahydro-5H-5,8-epiminocyclohepta[c]pyridine-10-carboxamide]",> 6.30
9,"O=C(Nc1cc(Cl)c(-c2ccccn2)cc1F)N1[C@H]2CC[C@@H]1c1n[nH]c(=O)cc1C2 [Compound 195, (6S,9R)-N-(5-Chloro-2-fluoro-4-(pyridin-2-yl)phenyl)-3-oxo-3,5,6,7,8,9-hexahydro-2H-6,9-epiminocyclohepta[c]pyridazine-10-carboxamide]",> 6.30
10,"O=C(Nc1cc(Cl)c(-c2cncc(F)c2)cc1F)N1[C@H]2CC[C@@H]1c1c[nH]c(=O)cc1C2 [Compound 201, (6S,9R)-N-(5-Chloro-2-fluoro-4-(5-fluoropyridin-3-yl)phenyl)-3-oxo-3,5,6,7,8,9-hexahydro-2H-6,9-epiminocyclohepta[c]pyridine-10-carboxamide]",> 6.30
11,"O=C(Nc1cc(Cl)c(-c2ccccc2)cc1F)N1[C@H]2CC[C@@H]1c1c[nH]c(=O)cc1C2 [Compound 251, (6S,9R)-N-(2-Chloro-5-fluoro-[1,1′-biphenyl]-4-yl)-3-oxo-3,5,6,7,8,9-hexahydro-2H-6,9-epiminocyclohepta[c]pyridine-10-carboxamide]",> 6.30
12,"CO[C@H]1C[C@@H](Oc2ccc(NC(=O)N3[C@H]4CC[C@@H]3c3ccnc(F)c3C4)cc2Cl)C1 [Compound 72, (5R,8S)-N-(3-Chloro-4-((1s,3S)-3-methoxycyclobutoxy)phenyl)-1-fluoro-6,7,8,9-tetrahydro-5H-5,8-epiminocyclohepta[c]pyridine-10-carboxamide]",5.30 to 6.30
13,"O=C(Nc1cc(Cl)c(C(F)(F)F)cc1F)N1C2CCC1C(F)(F)c1c2ccnc1F (racemic) [Compound 183, (±)—N-(5-Chloro-2-fluoro-4-(trifluoromethyl)phenyl)-1,9,9-trifluoro-6,7,8,9-tetrahydro-5H-5,8-epiminocyclohepta[c]pyridine-10-carboxamide]",> 6.30
14,"O=C(Nc1cc(Cl)c(-c2ccc(OC3CC3)nc2)cc1F)N1[C@H]2CC[C@@H]1c1n[nH]c(=O)cc1C2 [Compound 221, (6S,9R)-N-(5-Chloro-4-(6-cyclopropoxypyridin-3-yl)-2-fluorophenyl)-3-oxo-3,5,6,7,8,9-hexahydro-2H-6,9-epiminocyclohepta[c]pyridazine-10-carboxamide]",> 6.30
15,"COc1cnc(F)c2c1[C@H]1CC[C@@H](C2)N1C(=O)Nc1cc(Cl)c(Cl)cc1F [Compound 96, (5R,8S)-N-(4,5-Dichloro-2-fluorophenyl)-1-fluoro-4-methoxy-6,7,8,9-tetrahydro-5H-5,8-epiminocyclohepta[c]pyridine-10-carboxamide]",> 6.30

# Same assay, conditions: 1321N1-hrGPR65 cells, cAMP HTRF, assay pH 7.2; read-out: hGPR65 IC50 (Activity of selected compounds according to the invention)
row,SMILES,pIC50
1,"O=C(Nc1cc(Cl)c(Cl)cc1F)N1[C@H]2CC[C@@H]1c1c(F)ncc(Cl)c1C2 [Compound 99, (6S,9R)-4-Chloro-N-(4,5-dichloro-2-fluorophenyl)-1-fluoro-6,7,8,9-tetrahydro-5H-6,9-epiminocyclohepta[c]pyridine-10-carboxamide]",5.30 to 6.30
2,"CN(C)Cc1cccc(-c2cc(F)c(NC(=O)N3[C@H]4CC[C@@H]3c3n[nH]c(=O)cc3C4)cc2Cl)c1 [Compound 133, (6S,9R)-N-(2-Chloro-3′-((dimethylamino)methyl)-5-fluoro-[1,1′-biphenyl]-4-yl)-3-oxo-3,5,6,7,8,9-hexahydro-2H-6,9-epiminocyclohepta[c]pyridazine-10-carboxamide]",5.30 to 6.30
3,"NC(=O)c1ccc(-c2cc(F)c(NC(=O)N3[C@H]4CC[C@@H]3c3n[nH]c(=O)cc3C4)cc2Cl)cc1 [Compound 129, (6S,9R)-N-(4′-Carbamoyl-2-chloro-5-fluoro-[1,1′-biphenyl]-4-yl)-3-oxo-3,5,6,7,8,9-hexahydro-2H-6,9-epiminocyclohepta[c]pyridazine-10-carboxamide]",5.30 to 6.30
4,"O=C(Nc1cc(Cl)c(Cl)cc1F)N1[C@@H]2CC[C@H]1c1n[nH]c(=O)cc1C2 [Compound 21, (6R,9S)-N-(4,5-Dichloro-2-fluorophenyl)-3-oxo-3,5,6,7,8,9-hexahydro-2H-6,9-epiminocyclohepta[c]pyridazine-10-carboxamide]",5.30 to 6.30
5,"COCc1ccncc1-c1cc(F)c(NC(=O)N2[C@H]3CC[C@@H]2c2n[nH]c(=O)cc2C3)cc1Cl [Compound 192, (6S,9R)-N-(5-Chloro-2-fluoro-4-(4-(methoxymethyl)pyridin-3-yl)phenyl)-3-oxo-3,5,6,7,8,9-hexahydro-2H-6,9-epiminocyclohepta[c]pyridazine-10-carboxamide]",5.30 to 6.30
6,"CNCCCOc1cnc(F)c2c1[C@H]1CC[C@@H](C2)N1C(=O)Nc1cc(Cl)c(C(F)(F)F)cc1F [Compound 161, (5R,8S)—N-(5-Chloro-2-fluoro-4-(trifluoromethyl)phenyl)-1-fluoro-4-(3-(methylamino)propoxy)-6,7,8,9-tetrahydro-5H-5,8-epiminocyclohepta[c]pyridine-10-carboxamide]",5.30 to 6.30
7,"O=C(Nc1cc(Cl)c(Cl)cc1F)N1[C@H]2CC[C@@H]1c1nccc(F)c1C2 [Compound 91, (6S,9R)-N-(4,5-dichloro-2-fluorophenyl)-4-fluoro-6,7,8,9-tetrahydro-5H-6,9-epiminocyclohepta[b]pyridine-10-carboxamide]",5.30 to 6.30
